Measurements from the supplement of paper PMC10307832.

Legend:
Assay in all cases: relative viability (nuclei count vs DMSO), 5 days (fraction); higher = more cells survive
Etoposide + Phenformin = compound: COc1cc([C@@H]2c3cc4c(cc3[C@@H](O[C@@H]3O[C@@H]5CO[C@@H](C)O[C@H]5[C@H](O)[C@H]3O)[C@H]3COC(=O)[C@H]23)OCO4)cc(OC)c1O [Etoposide] + N=C(N)NC(=N)NCCc1ccccc1 [Phenformin] (partner 250 µM)
In short: (§1)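 The day after seeding in 1536-well plates, lung cancer cell lines were treated by pin tool with a single drug, or with a fixed anchor-drug dose together with five library-drug doses (not always all listed) in √10 steps. After 5 days, a combined fix-and-stain solution (final 0.05% Triton X-100, 1% formaldehyde, 1 ug/ml Hoechst) was added. Nuclei counted on 4× images gave relative viability as treated counts over vehicle counts, reported as the median of duplicate plates.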

Etoposide + AZD7762 = compound: COc1cc([C@@H]2c3cc4c(cc3[C@@H](O[C@@H]3O[C@@H]5CO[C@@H](C)O[C@H]5[C@H](O)[C@H]3O)[C@H]3COC(=O)[C@H]23)OCO4)cc(OC)c1O [Etoposide] + NC(=O)Nc1cc(-c2cccc(F)c2)sc1C(=O)N[C@H]1CCCNC1 [AZD7762] (partner 0.2 µM)
In short: as §1

Bleomycin + Bortezomib = compound: CC1=C(N=C(N=C1N)[C@H](CC(=O)N)NC[C@@H](C(=O)N)N)C(=O)N[C@@H]([C@H](C2=CN=CN2)OC3C(C(C(C(O3)CO)O)O)OC4C(C(C(C(O4)CO)O)OC(=O)N)O)C(=O)N[C@H](C)[C@H]([C@H](C)C(=O)N[C@@H]([C@@H](C)O)C(=O)NCCC5=NC(=CS5)C6=NC(=CS6)C(=O)NCCC[S+](C)C)O [Bleomycin] + CC(C)C[C@H](NC(=O)[C@H](Cc1ccccc1)NC(=O)c1cnccn1)B(O)O [Bortezomib] (partner 0.002 µM); conditions: main component drawn
In short: as §1

Bleomycin + Vorinostat = compound: CC1=C(N=C(N=C1N)[C@H](CC(=O)N)NC[C@@H](C(=O)N)N)C(=O)N[C@@H]([C@H](C2=CN=CN2)OC3C(C(C(C(O3)CO)O)O)OC4C(C(C(C(O4)CO)O)OC(=O)N)O)C(=O)N[C@H](C)[C@H]([C@H](C)C(=O)N[C@@H]([C@@H](C)O)C(=O)NCCC5=NC(=CS5)C6=NC(=CS6)C(=O)NCCC[S+](C)C)O [Bleomycin] + O=C(CCCCCCC(=O)Nc1ccccc1)NO [Vorinostat] (partner 1 µM); conditions: main component drawn
In short: as §1

Cell Line	relative viability (Etoposide + Phenformin; first compound 0.01 µM)	relative viability (Etoposide + Phenformin; first compound 0.03162 µM)	relative viability (Etoposide + Phenformin; first compound 0.1 µM)	relative viability (Etoposide + Phenformin; first compound 0.3162 µM)	relative viability (Etoposide + Phenformin; first compound 1 µM)	relative viability (Etoposide + AZD7762; first compound 0.01 µM)	relative viability (Etoposide + AZD7762; first compound 0.03162 µM)	relative viability (Etoposide + AZD7762; first compound 0.1 µM)	relative viability (Etoposide + AZD7762; first compound 0.3162 µM)	relative viability (Etoposide + AZD7762; first compound 1 µM)	relative viability (Bleomycin + Bortezomib; first compound 0.01 µM)	relative viability (Bleomycin + Bortezomib; first compound 0.03162 µM)	relative viability (Bleomycin + Bortezomib; first compound 0.1 µM)	relative viability (Bleomycin + Bortezomib; first compound 0.3162 µM)	relative viability (Bleomycin + Bortezomib; first compound 1 µM)	relative viability (Bleomycin + Vorinostat; first compound 0.01 µM)	relative viability (Bleomycin + Vorinostat; first compound 0.03162 µM)	relative viability (Bleomycin + Vorinostat; first compound 0.1 µM)	relative viability (Bleomycin + Vorinostat; first compound 0.3162 µM)	relative viability (Bleomycin + Vorinostat; first compound 1 µM)
HCC-44	0.215	0.156	0.134	0.198	0.112	1.02	1.05	1.15	1.01	0.95	0.544	0.333	0.225	0.153	0.145	0.906	0.989	0.733	0.459	0.383
HCC-827	0.413	0.412	0.338	0.315	0.156	0.206	0.223	0.185	0.167	0.177	0.948	0.918	0.9	0.464	0.357	0.857	–	0.736	0.585	0.207
NCI-H1623	0.624	0.615	0.388	0.485	0.281	–	–	–	–	–	–	–	–	–	–	–	–	–	–	–
NCI-H2405	0.381	0.432	0.415	0.364	0.283	0.754	0.765	0.728	0.638	0.317	0.875	0.932	0.91	0.525	0.371	0.792	1	0.816	0.59	0.321
PC-3 [JPC-3]	0.456	0.453	0.478	0.434	0.374	0.782	0.92	0.604	0.785	0.73	0.748	0.926	0.791	0.446	0.448	0.788	0.928	0.737	0.46	0.417
NCI-H1651	0.293	0.351	0.286	0.205	0.149	0.476	0.508	0.287	0.274	0.186	0.91	0.898	0.664	0.457	0.306	0.519	0.505	0.392	0.356	0.152
HARA	0.507	0.407	0.504	0.366	0.178	0.436	0.347	0.236	0.301	0.291	1	1.09	1.04	0.514	0.239	0.458	0.469	0.317	0.258	0.173
NCI-H1650	0.421	0.31	0.374	0.194	0.141	–	–	–	–	–	0.2	0.216	0.194	0.167	0.172	0.36	0.241	0.22	0.146	0.169
NCI-H1395	0.464	0.415	0.473	0.441	0.425	0.423	0.435	0.4	0.375	0.362	–	–	–	–	–	0.574	0.656	0.403	0.35	0.359
NCI-H2087	0.407	0.508	0.435	0.278	0.143	1.46	1.3	1.3	1.08	0.78	0.6	0.785	0.645	0.133	0.176	0.441	0.76	0.329	0.0956	0.15
LU99A	0.898	0.992	0.589	0.579	0.16	0.424	0.351	0.17	0.175	0.117	0.763	0.83	0.602	0.167	0.128	0.394	0.392	0.353	0.207	0.125
NCI-H1355	0.452	0.493	0.408	0.325	0.218	0.746	0.862	0.501	0.586	0.305	1.13	1.24	1.03	0.376	0.262	0.599	0.627	0.676	0.325	0.207
HCC-78	0.708	0.824	0.582	0.499	0.226	0.808	0.771	0.392	0.658	0.409	0.426	0.372	0.458	0.29	0.31	0.388	0.362	0.487	0.399	0.391
NCI-H1563	0.628	0.7	0.609	0.55	0.476	–	–	–	–	–	0.755	0.767	0.689	0.536	0.531	–	–	–	–	–
LK-2	0.563	0.641	0.368	0.319	0.172	0.395	0.659	0.255	0.319	0.2	–	–	–	–	–	0.232	0.281	0.217	0.209	0.195
COR-L23	0.394	0.479	0.434	0.287	0.155	–	–	–	–	–	0.669	0.774	0.355	0.136	0.102	0.273	0.392	0.218	0.104	0.0886
SW 900	0.359	0.618	0.459	0.322	0.16	0.561	0.7	0.379	0.539	0.293	–	–	–	–	–	0.403	0.513	0.427	0.207	0.217
